One assay concerns the target T1, PDE4B (Homo sapiens, UniProt Q07343).
T1 construct: purchased BPS Bioscience, San Diego
The experiment in a line: In vitro PDE4 inhibition study, PDE4B (BPS Bioscience). Format: binding. The note with it: for inhibition at 10 µM: values in parentheses. The method, then:
(§1) The IC50 values of Compound 8 on PDE4 isoforms were determined by BPS Bioscience, San Diego. In brief, coat proteins (PDE4 isoforms) were added into the plate in a volume of 50 μl (2-5 ng/μl) at 4° C. overnight. The next day, Compound 8 was added to the coated plate with varying concentrations followed by addition of the corresponding biotinylated binding partner. The reaction was incubated for 2 hours at room temperature. Binding assays were performed in duplicate at each concentration and the plates were read by using Synergy 2 BioTek plate reader. The luminescence data were analyzed using the Graphpad Prism. […] Data for a reference compounds or antibodies are included as a control for inhibition. “ND” indicates the compound was not tested.

The next assay deals with T2, PDE4D (Homo sapiens, UniProt Q08499).
T2 construct: purchased BPS Bioscience, San Diego
T2 sequence (Q08499 whole entry): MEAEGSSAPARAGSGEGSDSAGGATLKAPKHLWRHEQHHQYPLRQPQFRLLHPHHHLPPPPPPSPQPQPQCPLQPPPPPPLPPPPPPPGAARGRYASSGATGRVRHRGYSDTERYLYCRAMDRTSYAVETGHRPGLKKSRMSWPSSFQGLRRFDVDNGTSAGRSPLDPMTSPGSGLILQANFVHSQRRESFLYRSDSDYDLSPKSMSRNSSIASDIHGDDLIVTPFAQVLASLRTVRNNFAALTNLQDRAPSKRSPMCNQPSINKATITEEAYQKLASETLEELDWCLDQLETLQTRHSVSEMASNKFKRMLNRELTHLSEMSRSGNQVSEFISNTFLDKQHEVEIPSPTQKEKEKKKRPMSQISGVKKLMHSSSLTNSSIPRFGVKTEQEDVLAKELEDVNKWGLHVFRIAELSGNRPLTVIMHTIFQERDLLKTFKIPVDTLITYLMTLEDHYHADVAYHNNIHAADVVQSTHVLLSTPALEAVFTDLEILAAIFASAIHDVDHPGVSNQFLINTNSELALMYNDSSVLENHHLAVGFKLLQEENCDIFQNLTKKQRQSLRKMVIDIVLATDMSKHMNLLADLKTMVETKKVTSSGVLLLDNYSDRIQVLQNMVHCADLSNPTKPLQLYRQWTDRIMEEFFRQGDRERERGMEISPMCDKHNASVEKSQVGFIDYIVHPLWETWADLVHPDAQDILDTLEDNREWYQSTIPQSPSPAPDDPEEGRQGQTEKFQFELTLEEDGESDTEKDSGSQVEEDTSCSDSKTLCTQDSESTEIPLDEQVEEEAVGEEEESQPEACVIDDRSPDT
The experiment in a line: In vitro PDE4 inhibition study, PDE4D (BPS Bioscience). Format: binding. The conditions noted are these: values in parentheses. The method, then:
as §1

Each structure is given as a SMILES string.

T1 sequence (Q07343 whole entry): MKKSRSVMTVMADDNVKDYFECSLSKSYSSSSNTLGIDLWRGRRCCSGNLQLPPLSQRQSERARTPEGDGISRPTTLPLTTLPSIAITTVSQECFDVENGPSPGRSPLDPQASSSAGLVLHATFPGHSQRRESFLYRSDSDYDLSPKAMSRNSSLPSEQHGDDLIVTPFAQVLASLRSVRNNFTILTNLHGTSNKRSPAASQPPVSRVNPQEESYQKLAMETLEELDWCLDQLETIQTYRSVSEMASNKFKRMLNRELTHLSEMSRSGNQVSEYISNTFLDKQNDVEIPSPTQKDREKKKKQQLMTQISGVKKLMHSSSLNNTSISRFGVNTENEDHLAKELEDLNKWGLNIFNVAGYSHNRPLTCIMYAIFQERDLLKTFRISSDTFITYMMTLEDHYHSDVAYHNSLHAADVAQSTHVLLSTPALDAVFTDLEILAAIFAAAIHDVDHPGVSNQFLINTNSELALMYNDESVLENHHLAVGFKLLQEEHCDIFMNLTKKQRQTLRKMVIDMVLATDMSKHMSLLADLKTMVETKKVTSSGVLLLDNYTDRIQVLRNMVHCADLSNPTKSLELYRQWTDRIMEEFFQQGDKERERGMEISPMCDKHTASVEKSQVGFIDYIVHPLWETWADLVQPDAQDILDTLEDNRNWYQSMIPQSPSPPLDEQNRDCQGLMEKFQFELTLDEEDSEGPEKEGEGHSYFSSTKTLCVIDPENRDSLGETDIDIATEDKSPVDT

As usually defined, the IC50 is the concentration at which inhibition is half-maximal. For `O=C(c1cc2cccnc2n1-c1ccc(Cl)c(Cl)c1)N1CCC1` [Compound 6, Azetidin-1-yl(1-(3,4-dichlorophenyl)-1H-pyrrolo[2,3-b]pyridin-2-yl)methanone], on PDE4B, the IC50 was found to be 0.11 µM.
Same read-out and setting: to `O=C(c1cc2cccnc2n1-c1ccc(Cl)c(Cl)c1)N1CCC2(CCC2)C1` [Compound 13, (1-(3,4-dichlorophenyl)-1H-pyrrolo[2,3-b]pyridin-2-yl)(6-azaspiro[3.4]octan-6-yl) methanone] belongs 0.98 µM.
As a reminder, the inhibition is how much of the control response was suppressed. For the compound `N#Cc1c(F)cc(-n2c(C(=O)NC3CC(F)C3)cc3cccnc32)cc1F` (stereo not drawn) [Compound 28, 1-(4-cyano-3,5-difluorophenyl)-N-(3-fluorocyclobutyl)-1H-pyrrolo[2,3-b]pyridine-2-carboxamide], the inhibition at 10 µM came to 58% on PDE4B and 12.1% at PDE4D.
As for `O=C(NC1CC1)c1cc2cccnc2n1-c1ccc(Cl)cc1` [Compound 31, 1-(4-chlorophenyl)-N-cyclopropyl-1H-pyrrolo[2,3-b]pyridine-2-carboxamide], the concentration for half-maximal inhibition (IC50) on PDE4B amounted to 2.9 µM. Further, at PDE4D, the inhibition at 10 µM is 10.1%.
For `O=C(NC1CCC1)c1cc2cccnc2n1-c1ccc(Cl)c(Cl)c1` [Compound 2, N-cyclobutyl-1-(3,4-dichlorophenyl)-1H-pyrrolo[2,3-b]pyridine-2-carboxamide] the same measures were 1.1 µM and 24%.
For `Cc1ccc(-n2c(C(=O)NC3CCC3)cc3cccnc32)cc1Cl` [Compound 17, 1-(3-chloro-4-methylphenyl)-N-cyclobutyl-1H-pyrrolo[2,3-b]pyridine-2-carboxamide] the same measures were 2.3 µM and 43%.
For `O=C(NC1CCC1)c1cc2cccnc2n1-c1ccc(Cl)c(F)c1` [Compound 34, 1-(4-chloro-3-fluorophenyl)-N-cyclobutyl-1H-pyrrolo[2,3-b]pyridine-2-carboxamide] the same measures were 1.3 µM and 39%.
For the compound `N#Cc1c(F)cc(-n2c(C(=O)N3CC(F)C3)cc3cccnc32)cc1F` [Compound 30, 2,6-difluoro-4-(2-(3-fluoroazetidine-1-carbonyl)-1H-pyrrolo[2,3-b]pyridin-1-yl)benzonitrile], the IC50 at PDE4B stood at 0.43 µM. In addition, the inhibition at 10 µM at PDE4D was 66%.
For `N#Cc1c(F)cc(-n2c(C(=O)NC3CC3)cc3cccnc32)cc1F` [Compound 26, 1-(4-cyano-3,5-difluorophenyl)-N-cyclopropyl-1H-pyrrolo[2,3-b]pyridine-2-carboxamide] the same measures were 1.4 µM and 18.5%.
In the case of `O=C(c1cc2cccnc2n1Cc1ccc(Cl)c(Cl)c1)N1CC(F)C1` [Compound 43, (1-(3,4-dichlorobenzyl)-1H-pyrrolo[2,3-b]pyridin-2-yl)(3-fluoroazetidin-1-yl)methanone], the inhibition at 10 µM was 72% at PDE4B and 58% on PDE4D.
Regarding `O=C(NCc1ccco1)c1cc2cccnc2n1-c1ccc(Cl)c(Cl)c1` [Compound 5, 1-(3,4-dichlorophenyl)-N-(furan-2-ylmethyl)-1H-pyrrolo[2,3-b]pyridine-2-carboxamide], the inhibition at 10 µM at PDE4B stood at 70%; on PDE4D, 52%.
`N#Cc1c(F)cc(-n2c(C(=O)NC3CCC3)cc3cccnc32)cc1F` [Compound 27, 1-(4-cyano-3,5-difluorophenyl)-N-cyclobutyl-1H-pyrrolo[2,3-b]pyridine-2-carboxamide]: the IC50 on PDE4B came out at 1.8 µM. Besides, the inhibition at 10 µM at PDE4D turned out to be 16.6%.
In the case of `O=C(c1cc2cccnc2n1-c1ccc(Cl)c(Cl)c1)N1CCS(=O)(=O)CC1` [Compound 11, (1-(3,4-dichlorophenyl)-1H-pyrrolo[2,3-b]pyridin-2-yl)(1,1-dioxidothiomorpholino) methanone], the inhibition at 10 µM on PDE4B stood at 39%; on PDE4D, 17%.
Turning to `O=C(NC1CC(F)C1)c1cc2cccnc2n1-c1ccc(Cl)c(Cl)c1` (stereo not drawn) [Compound 3, 1-(3,4-Dichlorophenyl)-N-(3-fluorocyclobutyl)-1H-pyrrolo[2,3-b]pyridine-2-carboxamide], the IC50 on PDE4B is 0.6 µM. At PDE4D, the inhibition at 10 µM was 36%.
For `O=C(NC1CC1)c1cc2cccnc2n1-c1cc(F)c(Cl)c(F)c1` [Compound 21, 1-(4-chloro-3,5-difluorophenyl)-N-cyclopropyl-1H-pyrrolo[2,3-b]pyridine-2-carboxamide] the same measures were 1.4 µM and 53%.
Take `O=C(NC1CCC1)c1cc2cccnc2n1-c1ccc(Cl)cc1` [Compound 32, 1-(4-chlorophenyl)-N-cyclobutyl-1H-pyrrolo[2,3-b]pyridine-2-carboxamide]: the IC50 at PDE4B was 5 µM. In addition, on PDE4D, the inhibition at 10 µM worked out at 28.2%.
For the compound `O=C(c1cc2cccnc2n1-c1ccc(Cl)c(Cl)c1)N1CCCC2(CCO2)C1` (stereo not drawn) [Compound 10, (1-(3,4-dichlorophenyl)-1H-pyrrolo[2,3-b]pyridin-2-yl)(1-oxa-6-azaspiro[3.5]nonan-6-yl)methanone], the results for the inhibition at 10 µM at PDE4B and on PDE4D were 73% and 39%, respectively.
As to `O=C(c1cc2cccnc2n1-c1ccnc(F)c1)N1CC(F)C1` [Compound 41, (3-fluoroazetidin-1-yl)(1-(2-fluoropyridin-4-yl)-1H-pyrrolo[2,3-b]pyridin-2-yl)methanone], the IC50 at PDE4B worked out at 0.98 µM.
`O=C(c1cc2cccnc2n1-c1ccc(Cl)c(F)c1)N1CC(F)C1` [Compound 37, (1-(4-chloro-3-fluorophenyl)-1H-pyrrolo[2,3-b]pyridin-2-yl)(3-fluoroazetidin-1-yl) methanone]: the IC50 on PDE4B is 0.61 µM. Also, the inhibition at 10 µM at PDE4D was 71%.
Turning to `O=C(c1cc2cccnc2n1-c1ccc(Cl)c(Cl)c1)N1CCC2(CCC2)CC1` [Compound 12, (1-(3,4-dichlorophenyl)-1H-pyrrolo[2,3-b]pyridin-2-yl)(7-azaspiro[3.5]nonan-7-yl) methanone], the inhibition at 10 µM is 50% on PDE4B and 29% on PDE4D.
As for `O=C(c1cc2cccnc2n1-c1ccc(Cl)c(Cl)c1)N1CC(F)C1` [Compound 7, (1-(3,4-dichlorophenyl)-1H-pyrrolo[2,3-b]pyridin-2-yl)(3-fluoroazetidin-1-yl)methanone], the IC50 at PDE4B amounted to 0.23 µM. Moreover, at PDE4D, the inhibition at 10 µM came to 77%.
`Cc1ccc(-n2c(C(=O)N3CC(F)C3)cc3cccnc32)cc1Cl` [Compound 20, (1-(3-chloro-4-methylphenyl)-1H-pyrrolo[2,3-b]pyridin-2-yl)(3-fluoroazetidin-1-yl) methanone]: at PDE4B, the IC50 came out at 0.91 µM. At PDE4D, the inhibition at 10 µM worked out at 60%.
For `O=C(c1cc2cccnc2n1-c1ccc(Cl)c(Cl)c1)N1CC2(CCNCC2)C1` [Compound 15, (1-(3,4-dichlorophenyl)-1H-pyrrolo[2,3-b]pyridin-2-yl)(2,7-diazaspiro[3.5]nonan-2-yl) methanone], the inhibition at 10 µM on PDE4B is 33%; at PDE4D, 13%.
Regarding `O=C(NC1CC1)c1cc2cccnc2n1-c1ccc(Cl)c(F)c1` [Compound 33, 1-(4-chloro-3-fluorophenyl)-N-cyclopropyl-1H-pyrrolo[2,3-b]pyridine-2-carboxamide], the IC50 on PDE4B is 0.97 µM. For the same compound, the inhibition at 10 µM on PDE4D came out at 24%.
Consider `N#Cc1c(F)cc(-n2c(C(=O)NC3CC(F)(F)C3)cc3cccnc32)cc1F` [Compound 29, 1-(4-cyano-3,5-difluorophenyl)-N-(3,3-difluorocyclobutyl)-1H-pyrrolo[2,3-b]pyridine-2-carboxamide], for which the inhibition at 10 µM on PDE4B was 47%; at PDE4D it was 18%.
`COc1ncc(-n2c(C(=O)N3CC(F)C3)cc3cccnc32)cc1Cl` [Compound 39, (1-(5-chloro-6-methoxypyridin-3-yl)-1H-pyrrolo[2,3-b]pyridin-2-yl)(3-fluoroazetidin-1-yl) methanone]: the IC50 at PDE4B was 0.49 µM.
For the compound `O=C(NC1CCC1)c1cc2cccnc2n1-c1cc(F)c(Cl)c(F)c1` [Compound 22, 1-(4-chloro-3,5-difluorophenyl)-N-cyclobutyl-1H-pyrrolo[2,3-b]pyridine-2-carboxamide], the IC50 on PDE4B amounted to 1.3 µM. Also, on PDE4D, the inhibition at 10 µM turned out to be 10.7%.
Regarding `COc1ccc(-n2c(C(=O)N3CC(F)C3)cc3cccnc32)cc1` [Compound 38, (3-fluoroazetidin-1-yl)(1-(4-methoxyphenyl)-1H-pyrrolo[2,3-b]pyridin-2-yl)methanone], the figures for the inhibition at 10 µM at PDE4B and at PDE4D were 67% and 37%, respectively.
For the compound `O=C(c1cc2cccnc2n1-c1cc(F)c(Cl)c(F)c1)N1CC(F)C1` [Compound 25, (1-(4-chloro-3,5-difluorophenyl)-1H-pyrrolo[2,3-b]pyridin-2-yl)(3-fluoroazetidin-1-yl) methanone], the IC50 on PDE4B stood at 0.21 µM. On PDE4D, the inhibition at 10 µM was 62%.
`COc1c(F)cc(-n2c(C(=O)N3CC(F)C3)cc3cccnc32)cc1F` [Compound 42, (1-(3,5-difluoro-4-methoxyphenyl)-1H-pyrrolo[2,3-b]pyridin-2-yl)(3-fluoroazetidin-1-yl) methanone]: the IC50 at PDE4B is 0.41 µM.
With `O=C(NC1CC(F)(F)C1)c1cc2cccnc2n1-c1ccc(Cl)c(Cl)c1` [Compound 4, 1-(3,4-dichlorophenyl)-N-(3,3-difluorocyclobutyl)-1H-pyrrolo[2,3-b]pyridine-2-carboxamide], the inhibition at 10 µM on PDE4B was 23%; on PDE4D it was 11.6%.
